Test results published in ChEMBL document CHEMBL6153102, “Rational Design, Synthesis, and Biological Evaluation of Novel c-Met Degraders for Lung Cancer Therapy” (J Med Chem, 2025).
Calls of active or inactive are those of the source. No cut-off for these calls is given here.

How the values were obtained:
[1] = Half life in Sprague-Dawley rat at 5 mg/kg, ip measured upto 24 hrs by LC-MS/MS analysis; type: ADME, organism-based; details: in vivo
EBC-1 [2] = experiment: Induction of apoptosis in human EBC-1 cells assessed as late apoptotic cells at 50 nM incubated for 24 hrs by Annexin V/FITC staining based flow cytometry analysis (reference value: 1.65 %); type: functional
[3] = Half life in Sprague-Dawley rat at 2 mg/kg, iv measured upto 24 hrs by LC-MS/MS analysis; type: ADME, organism-based; details: in vivo
[4] = molecular target: T1, Protein cereblon/Hepatocyte growth factor receptor (Homo sapiens, UniProt P08581+Q96SW2); experiment: PROTAC activity at c-Met/CRBN in human EBC-1 cells assessed as reduction in AKR1C2 level at 15.6 nM incubated for 24 hrs by proteomics analysis; type: cell-based
[5] = molecular target: T1, Protein cereblon/Hepatocyte growth factor receptor; experiment: PROTAC activity at c-Met/CRBN in human HCT-116 cells assessed as induction of c-Met degradation at 100 nM incubated for 24 hrs by Western blotting analysis relative to control; type: cell-based
[6] = Toxicity in BALB/c nude mouse assessed as lung damage at 10 to 20 mg/kg, ip administered for 7 days by H and E staining based analysis; type: organism-based; details: in vivo, 168 h, dose 10-20 mg/kg, time 7 day
[7] = molecular target: T1, Protein cereblon/Hepatocyte growth factor receptor; experiment: PROTAC activity at c-Met/CRBN in human EBC-1 cells assessed as reduction in c-Met level at 3.9 to 125 nM incubated for 24 hrs in presence of tepotinib by Western blot analysis; type: cell-based; details: dose 3.9-125 nM
[8] = AUC (0 to infinity) in Sprague-Dawley rat at 5 mg/kg, ip measured upto 24 hrs by LC-MS/MS analysis; type: ADME, organism-based; details: in vivo
[9] = Toxicity in BALB/c nude mouse assessed as kidney damage at 10 to 20 mg/kg, ip administered for 7 days by H and E staining based analysis; type: organism-based; details: in vivo, 168 h, dose 10-20 mg/kg, time 7 day
EBC-1 [10] = experiment: Inhibition of colony formation in human EBC-1 cells at 3.9 to 15.6 nM incubated for 7 days by crystal violet staining based analysis; type: functional, cell-based; details: dose 3.9-15.6 nM, time 7.0 day

T1 sequence (P08581 25-1390 limits assumed): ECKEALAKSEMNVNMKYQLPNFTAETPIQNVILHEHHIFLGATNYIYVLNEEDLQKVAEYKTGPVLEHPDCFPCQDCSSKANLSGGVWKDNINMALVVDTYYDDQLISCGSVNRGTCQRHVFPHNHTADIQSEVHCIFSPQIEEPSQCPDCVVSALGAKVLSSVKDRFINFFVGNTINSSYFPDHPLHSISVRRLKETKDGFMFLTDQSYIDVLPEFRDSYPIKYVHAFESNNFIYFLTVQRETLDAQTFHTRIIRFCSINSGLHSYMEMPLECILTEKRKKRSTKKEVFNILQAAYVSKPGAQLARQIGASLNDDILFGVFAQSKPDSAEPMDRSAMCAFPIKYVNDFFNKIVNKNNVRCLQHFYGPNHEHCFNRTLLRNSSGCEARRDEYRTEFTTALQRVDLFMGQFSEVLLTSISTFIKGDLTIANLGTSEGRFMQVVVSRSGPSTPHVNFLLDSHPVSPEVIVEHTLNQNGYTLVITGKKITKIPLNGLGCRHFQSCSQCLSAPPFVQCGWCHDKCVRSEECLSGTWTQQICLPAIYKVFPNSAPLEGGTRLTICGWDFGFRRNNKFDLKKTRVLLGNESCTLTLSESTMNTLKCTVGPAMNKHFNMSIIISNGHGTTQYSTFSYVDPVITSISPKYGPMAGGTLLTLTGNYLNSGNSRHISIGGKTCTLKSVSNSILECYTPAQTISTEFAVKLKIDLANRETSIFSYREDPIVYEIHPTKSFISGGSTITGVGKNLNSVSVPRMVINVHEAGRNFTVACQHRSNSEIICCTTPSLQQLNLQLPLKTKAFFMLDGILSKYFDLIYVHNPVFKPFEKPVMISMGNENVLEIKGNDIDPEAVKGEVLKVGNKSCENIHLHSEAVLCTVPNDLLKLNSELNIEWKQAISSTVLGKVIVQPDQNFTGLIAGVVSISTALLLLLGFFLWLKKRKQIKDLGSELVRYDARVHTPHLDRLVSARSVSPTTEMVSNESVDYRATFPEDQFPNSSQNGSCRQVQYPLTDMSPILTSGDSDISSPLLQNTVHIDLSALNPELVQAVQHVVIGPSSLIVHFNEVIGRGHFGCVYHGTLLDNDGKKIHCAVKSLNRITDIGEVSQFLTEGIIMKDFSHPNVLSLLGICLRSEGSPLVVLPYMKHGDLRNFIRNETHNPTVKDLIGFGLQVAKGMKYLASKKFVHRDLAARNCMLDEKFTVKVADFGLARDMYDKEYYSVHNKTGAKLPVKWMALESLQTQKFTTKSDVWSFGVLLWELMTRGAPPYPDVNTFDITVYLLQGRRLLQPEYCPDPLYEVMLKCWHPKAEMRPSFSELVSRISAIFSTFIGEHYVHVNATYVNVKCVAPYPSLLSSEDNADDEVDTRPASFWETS
T1 sequence (Q96SW2 whole entry partner): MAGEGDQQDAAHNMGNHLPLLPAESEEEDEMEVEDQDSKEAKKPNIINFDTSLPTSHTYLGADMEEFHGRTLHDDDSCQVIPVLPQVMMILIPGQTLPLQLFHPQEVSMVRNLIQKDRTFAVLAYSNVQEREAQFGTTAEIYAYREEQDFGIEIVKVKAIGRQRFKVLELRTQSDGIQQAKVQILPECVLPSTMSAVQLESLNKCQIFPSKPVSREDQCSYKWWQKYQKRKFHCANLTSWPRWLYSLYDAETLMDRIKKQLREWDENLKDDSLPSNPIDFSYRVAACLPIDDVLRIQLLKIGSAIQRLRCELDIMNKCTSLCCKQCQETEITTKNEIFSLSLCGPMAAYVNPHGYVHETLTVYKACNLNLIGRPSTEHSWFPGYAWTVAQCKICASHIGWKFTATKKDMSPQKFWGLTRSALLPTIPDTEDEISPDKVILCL

For `COc1ccc(C(=O)N2CCC3(CCN(C(=O)CN4CCC(COc5cnc(-c6cccc(Cn7nc(-c8cccc(C#N)c8)ccc7=O)c6)nc5)CC4)CC3)CC2)cc1N1CCC(=O)NC1=O`, which half-life [1] is on record?
Its half-life is 5.49 h.

And the Activity (EBC-1 [2])?
The Activity was 3.47%.

And the t1/2 [3]?
The t1/2 was 6.9 h.

What about the Activity [4] of the same compound?
Its Activity is “Active”.

And the Activity [5]?
Its Activity is “inactive”.

And the Activity [6]?
The Activity was “Non-toxic”.

What about the Activity [7] of the same compound?
The Activity was “inactive”.

What about the AUC(0-inf) [8] of the same compound?
The AUC(0-inf) was 0.678 µg·h/mL.

And the Activity [9]?
The Activity was “Non-toxic”.

And the inhibition (EBC-1 [10])?
The inhibition was “Active”.
